From patent publication US20070173478A1, “Compositions for the enhanced treatment of depression” (WWK TRUST, priority 2003, published 2007)

Tested on: chronic endogenous depression
Experiment: Case #1: patient with chronic endogenous depression
Assay type: in vivo, human
Conditions: person

| Structure (SMILES) | antidepressant effect of fluoxetine alone (30 mg fluoxetine once daily, before the combination) | effect of previous treatment (previous treatment) | side effects of previous treatment (previous treatment) |
| --- | --- | --- | --- |
| CNCCC(Oc1ccc(C(F)(F)F)cc1)c1ccccc1 (stereo not drawn) [fluoxetine] | requiring increasing doses to sustain antidepressant effects |  |  |
| CN(C)CC/C=C1\c2ccccc2CSc2ccccc21 [prothiaden] |  | relatively ineffective | complained of side effects |
